US20210244712A1, “METHODS FOR TREATING PATIENTS WITH CANCER HAVING DEFECTS IN CYCLIN D REGULATION” (NysnoBio Ireland DAC, priority 2018, published 2021)

Columns and labels:
Format in all cases: cell-based
OVCAR-3 = test: Cell proliferation assay; details: Homo sapiens; Ovarian OVCAR-3; loss of p16 (mutant p53)
SW626 = test: Cell proliferation assay; details: Homo sapiens; Table 7a; Ovarian (SW626)
pRb = test: Western blot of cellular biomarker pRb
Experimental: (§1) Various cancer cells lines were treated with Compound 42 or palbociclib (control) to measure the expression of cyclin D, cyclin E, pRb, and Rb.
(§2) Day 1: 6 well plate was seeded with 3×10^5 cells/well with a final volume of 3 mL and incubated for 24 hours at 37° C.
(§3) Day 2: The media was removed and Compound 42 (see below for dose) or palbociclib (1 μM) as positive control were added to the wells the desired concentration in cell culture media, giving a final volume of 3 mL per well. The plate was incubated for 24 hours at 37° C. (or desired period).
(§4) Day 3: The media was removed from wells and washed ×3 with PBS. 500 μl of trypsin was added to the wells and incubate until cells detach. 500 μl media was added to neutralise trypsin, transferred to 2 ml Eppendorfs, and centrifuged (1500 RPM for 5 minutes). While spinning, the wells were washed with 1 mL PBS to collect any remaining cells. This wash was used to centrifuged cell pellet. After the first spin, the supernatant was discarded and the pellet was washed with PBS collected from the previous step. The centrifugation step was repeated and the supernatant was discarded and the pellet wash again with fresh PBS. The centrifugation and wash with PBS was repeated one more time. RIPA cell lysate buffer was prepared and Protease Inhibitor Cocktail was included. The supernatant was discarded and […] RIPA cell lysate buffer was added to the pellet. The protein concentration was determined using the BCA assay kit.
(§5) Day 4: Western blot analysis was performed. 4-12% Bis-Tris gel and MOPS running buffer was used. The running buffer was made to sufficient volume of running buffer to 1× concentration. 20 μg protein (v/v loading & reducing buffer) of each sample was loaded into wells. Some proteins may require more, or less, protein loaded. The gel was ran at standard settings 200 V for 45 minutes. […] The membrane was blocked using 5% non-fat powdered milk* made up in 1×TBS containing 0.1% Tween (TBS-T and incubated for 1 hr with gentle rocking. The observation from the Western blot analysis is quantified in FIGS. 2-7D. […]

Rb = test: Western blot of cellular biomarker Rb
Experimental: as §1, §2, §3, §4, §5

[1] = HT116, with increasing concentration
[2] = OAW42, 250 nM Compound 42, 24 hours, compared to palbociclib 1 μM

## Cc1ccccc1C(=O)Nc1nc(NC(=O)c2ccccc2C)n(-c2ccc(OC(F)(F)F)cc2)n1 [Compound 42, N,N′-(1-(4-(trifluoromethoxy)phenyl)-1H-1,2,4-triazole-3,5-diyl)bis(2-methylbenzamide)]
OVCAR-3
  IC50: 140 nM
SW626
  EC50: 334 nM
pRb; A2780, 250 nM Compound 42, 24 hours, compared to palbociclib 1 μM
  pRb expression: some reduction of pRb expression
pRb; [1]
  pRb expression: reduction
pRb; [2]
  pRb expression: reduction of pRb expression
Rb; ES-2, 250 nM Compound 42, 24 hours, compared to palbociclib 1 μM
  Rb expression: reduction of Rb expression
Rb; [1]
  Rb expression: reduction
Rb; [2]
  Rb expression: reduction of Rb expression
